# Test results from ChEMBL document CHEMBL3991601, “The target landscape of clinical kinase drugs” (Science, 2017).
# Activity calls are given as the source filed them. Rule as the data show it, for most assays here: actives have a measured Kd and inactives only a lower limit.
# Columns and labels:
# [1] = target: T1, Phosphorylase b kinase gamma catalytic chain, liver/testis isoform (Homo sapiens, UniProt P15735)
# T1 sequence (P15735 whole entry): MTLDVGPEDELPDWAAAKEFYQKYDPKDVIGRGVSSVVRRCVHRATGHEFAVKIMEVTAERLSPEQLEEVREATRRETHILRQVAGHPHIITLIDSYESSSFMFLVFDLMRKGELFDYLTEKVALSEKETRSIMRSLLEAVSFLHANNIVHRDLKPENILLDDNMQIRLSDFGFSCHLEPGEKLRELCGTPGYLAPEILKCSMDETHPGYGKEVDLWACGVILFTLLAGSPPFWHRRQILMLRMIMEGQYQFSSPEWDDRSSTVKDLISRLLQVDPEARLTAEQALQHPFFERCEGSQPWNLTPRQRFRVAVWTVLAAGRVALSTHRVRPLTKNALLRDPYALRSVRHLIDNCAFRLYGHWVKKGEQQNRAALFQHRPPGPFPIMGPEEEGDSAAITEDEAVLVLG
# [2] = target: Tyrosine-protein kinase Fer (Homo sapiens, UniProt P16591)
# [3] = target: Mitogen-activated protein kinase kinase kinase kinase 4 (Homo sapiens, UniProt O95819)
# [4] = target: Cyclin-dependent kinase 7 (Homo sapiens, UniProt P50613)
# [5] = target: Serine/threonine-protein kinase 10 (Homo sapiens, UniProt O94804)
# [6] = target: T2, Serine/threonine-protein kinase Nek1 (Homo sapiens, UniProt Q96PY6)
# T2 sequence (Q96PY6 whole entry): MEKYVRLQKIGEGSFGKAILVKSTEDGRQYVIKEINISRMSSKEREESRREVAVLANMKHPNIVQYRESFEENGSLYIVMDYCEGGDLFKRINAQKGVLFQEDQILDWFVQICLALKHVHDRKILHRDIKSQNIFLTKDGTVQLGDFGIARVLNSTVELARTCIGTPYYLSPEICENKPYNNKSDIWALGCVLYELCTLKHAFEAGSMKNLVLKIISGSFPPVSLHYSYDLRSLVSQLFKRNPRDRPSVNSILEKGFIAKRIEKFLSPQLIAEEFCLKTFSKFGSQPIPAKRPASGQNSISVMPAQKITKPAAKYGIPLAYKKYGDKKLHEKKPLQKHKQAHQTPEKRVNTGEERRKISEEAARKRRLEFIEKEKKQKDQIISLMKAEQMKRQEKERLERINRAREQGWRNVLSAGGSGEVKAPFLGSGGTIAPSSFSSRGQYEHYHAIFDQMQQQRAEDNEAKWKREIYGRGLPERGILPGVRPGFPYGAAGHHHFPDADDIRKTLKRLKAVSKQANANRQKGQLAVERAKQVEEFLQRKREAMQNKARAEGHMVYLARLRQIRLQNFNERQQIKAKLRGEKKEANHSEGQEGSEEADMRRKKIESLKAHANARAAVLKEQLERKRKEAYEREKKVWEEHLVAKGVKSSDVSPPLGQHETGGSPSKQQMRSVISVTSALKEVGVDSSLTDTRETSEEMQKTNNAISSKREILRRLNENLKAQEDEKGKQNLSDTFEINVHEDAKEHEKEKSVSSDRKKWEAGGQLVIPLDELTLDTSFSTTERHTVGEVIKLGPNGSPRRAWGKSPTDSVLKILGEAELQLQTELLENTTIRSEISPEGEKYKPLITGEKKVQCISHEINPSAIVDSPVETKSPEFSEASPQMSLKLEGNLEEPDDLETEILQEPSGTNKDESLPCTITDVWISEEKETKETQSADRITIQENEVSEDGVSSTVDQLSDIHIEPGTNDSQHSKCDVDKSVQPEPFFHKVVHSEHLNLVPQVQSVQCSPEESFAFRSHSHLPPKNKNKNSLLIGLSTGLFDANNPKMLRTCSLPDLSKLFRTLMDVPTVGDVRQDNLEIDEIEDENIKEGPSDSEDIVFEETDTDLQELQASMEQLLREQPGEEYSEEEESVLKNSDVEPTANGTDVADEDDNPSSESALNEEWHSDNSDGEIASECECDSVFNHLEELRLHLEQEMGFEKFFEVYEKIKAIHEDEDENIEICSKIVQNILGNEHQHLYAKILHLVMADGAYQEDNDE
# [7] = target: T3, Electron transfer flavoprotein subunit beta (Homo sapiens, UniProt P38117)
# T3 sequence (P38117 whole entry): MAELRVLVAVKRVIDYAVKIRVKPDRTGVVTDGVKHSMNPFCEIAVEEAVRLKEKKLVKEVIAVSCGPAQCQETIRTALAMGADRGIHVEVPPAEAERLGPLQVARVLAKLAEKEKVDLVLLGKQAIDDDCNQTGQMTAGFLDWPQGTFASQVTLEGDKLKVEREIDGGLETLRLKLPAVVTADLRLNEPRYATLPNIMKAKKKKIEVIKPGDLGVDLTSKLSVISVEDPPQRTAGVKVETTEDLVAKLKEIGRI
# [8] = target: T4, Mitogen-activated protein kinase kinase kinase kinase 3 (Homo sapiens, UniProt Q8IVH8)
# T4 sequence (Q8IVH8 whole entry): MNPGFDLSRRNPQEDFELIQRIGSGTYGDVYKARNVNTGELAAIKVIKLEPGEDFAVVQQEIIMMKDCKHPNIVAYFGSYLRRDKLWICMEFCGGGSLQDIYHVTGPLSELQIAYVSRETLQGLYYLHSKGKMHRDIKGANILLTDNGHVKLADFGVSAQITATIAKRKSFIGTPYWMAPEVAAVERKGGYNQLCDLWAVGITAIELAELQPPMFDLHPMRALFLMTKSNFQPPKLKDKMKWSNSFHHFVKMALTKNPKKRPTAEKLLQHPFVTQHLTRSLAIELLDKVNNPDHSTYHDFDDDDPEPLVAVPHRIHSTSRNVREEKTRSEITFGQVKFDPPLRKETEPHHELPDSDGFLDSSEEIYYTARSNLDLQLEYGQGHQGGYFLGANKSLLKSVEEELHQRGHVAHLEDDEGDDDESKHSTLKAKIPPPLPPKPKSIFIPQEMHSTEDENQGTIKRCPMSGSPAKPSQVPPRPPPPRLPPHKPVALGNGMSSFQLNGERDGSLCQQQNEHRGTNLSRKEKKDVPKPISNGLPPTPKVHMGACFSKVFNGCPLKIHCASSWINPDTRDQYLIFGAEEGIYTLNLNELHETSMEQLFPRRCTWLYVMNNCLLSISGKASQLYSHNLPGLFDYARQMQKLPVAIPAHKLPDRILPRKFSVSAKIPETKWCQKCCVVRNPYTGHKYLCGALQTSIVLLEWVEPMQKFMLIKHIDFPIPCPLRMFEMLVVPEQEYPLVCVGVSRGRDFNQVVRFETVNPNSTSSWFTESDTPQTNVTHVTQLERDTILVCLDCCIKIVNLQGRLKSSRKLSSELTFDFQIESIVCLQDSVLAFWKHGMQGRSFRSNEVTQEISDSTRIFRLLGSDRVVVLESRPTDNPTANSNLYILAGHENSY
# Also: in the data inactive means no Kd found up to 30 µM.
# Chain of Tyrosine-protein kinase Fer (P16591 whole entry): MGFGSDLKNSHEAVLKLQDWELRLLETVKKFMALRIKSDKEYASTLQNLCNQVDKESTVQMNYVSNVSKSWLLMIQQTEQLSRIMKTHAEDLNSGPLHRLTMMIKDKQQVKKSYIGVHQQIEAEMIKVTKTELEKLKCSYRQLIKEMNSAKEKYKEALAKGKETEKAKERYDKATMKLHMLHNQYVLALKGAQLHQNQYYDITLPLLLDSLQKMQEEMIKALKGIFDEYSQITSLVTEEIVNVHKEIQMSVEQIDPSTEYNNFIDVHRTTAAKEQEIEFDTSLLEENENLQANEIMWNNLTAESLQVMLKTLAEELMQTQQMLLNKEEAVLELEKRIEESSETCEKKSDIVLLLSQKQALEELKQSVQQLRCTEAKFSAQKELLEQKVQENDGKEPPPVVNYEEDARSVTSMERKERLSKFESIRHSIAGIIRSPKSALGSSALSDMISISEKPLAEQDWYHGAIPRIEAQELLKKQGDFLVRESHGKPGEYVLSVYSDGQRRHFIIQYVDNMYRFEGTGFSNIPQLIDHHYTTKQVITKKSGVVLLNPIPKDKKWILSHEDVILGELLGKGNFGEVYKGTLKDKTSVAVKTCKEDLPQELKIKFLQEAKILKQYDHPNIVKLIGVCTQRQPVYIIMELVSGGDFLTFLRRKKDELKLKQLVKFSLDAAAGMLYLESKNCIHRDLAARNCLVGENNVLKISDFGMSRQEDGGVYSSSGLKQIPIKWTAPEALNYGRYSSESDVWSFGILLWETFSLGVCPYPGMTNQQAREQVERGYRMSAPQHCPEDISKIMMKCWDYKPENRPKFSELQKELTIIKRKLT
# Chain of Mitogen-activated protein kinase kinase kinase kinase 4 (O95819 whole entry): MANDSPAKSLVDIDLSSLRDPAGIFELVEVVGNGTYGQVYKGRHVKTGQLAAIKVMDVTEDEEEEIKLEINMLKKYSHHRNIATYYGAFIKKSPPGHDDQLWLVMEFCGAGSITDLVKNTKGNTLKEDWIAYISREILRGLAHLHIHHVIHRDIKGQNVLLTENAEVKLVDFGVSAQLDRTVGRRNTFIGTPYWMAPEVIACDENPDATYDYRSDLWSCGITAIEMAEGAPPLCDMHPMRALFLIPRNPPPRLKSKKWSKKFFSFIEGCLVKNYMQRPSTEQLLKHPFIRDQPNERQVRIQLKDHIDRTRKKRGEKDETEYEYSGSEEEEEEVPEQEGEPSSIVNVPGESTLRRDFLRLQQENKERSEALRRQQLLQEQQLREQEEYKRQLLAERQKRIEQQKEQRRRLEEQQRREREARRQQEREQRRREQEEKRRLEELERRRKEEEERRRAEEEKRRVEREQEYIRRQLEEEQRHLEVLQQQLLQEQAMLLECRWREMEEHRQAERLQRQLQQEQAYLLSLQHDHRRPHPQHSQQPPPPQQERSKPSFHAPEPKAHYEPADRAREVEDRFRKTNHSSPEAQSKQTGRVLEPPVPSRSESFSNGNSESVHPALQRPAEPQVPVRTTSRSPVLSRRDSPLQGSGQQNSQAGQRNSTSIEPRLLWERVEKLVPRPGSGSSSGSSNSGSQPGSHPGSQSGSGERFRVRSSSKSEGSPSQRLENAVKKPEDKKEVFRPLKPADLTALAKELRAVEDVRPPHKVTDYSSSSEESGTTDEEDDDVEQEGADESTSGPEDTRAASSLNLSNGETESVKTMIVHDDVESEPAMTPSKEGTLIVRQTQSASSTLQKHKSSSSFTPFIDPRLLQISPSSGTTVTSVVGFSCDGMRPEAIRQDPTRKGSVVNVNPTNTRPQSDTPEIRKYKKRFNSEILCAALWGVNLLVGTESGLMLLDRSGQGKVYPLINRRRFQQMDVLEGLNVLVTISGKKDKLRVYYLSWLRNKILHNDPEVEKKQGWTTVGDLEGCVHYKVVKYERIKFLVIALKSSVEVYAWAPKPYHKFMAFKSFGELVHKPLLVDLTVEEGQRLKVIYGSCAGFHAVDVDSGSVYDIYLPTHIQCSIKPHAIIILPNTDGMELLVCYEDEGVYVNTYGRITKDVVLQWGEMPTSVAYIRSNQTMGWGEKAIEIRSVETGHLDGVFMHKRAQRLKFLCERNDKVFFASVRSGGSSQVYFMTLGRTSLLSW
# Chain of Cyclin-dependent kinase 7 (P50613 whole entry): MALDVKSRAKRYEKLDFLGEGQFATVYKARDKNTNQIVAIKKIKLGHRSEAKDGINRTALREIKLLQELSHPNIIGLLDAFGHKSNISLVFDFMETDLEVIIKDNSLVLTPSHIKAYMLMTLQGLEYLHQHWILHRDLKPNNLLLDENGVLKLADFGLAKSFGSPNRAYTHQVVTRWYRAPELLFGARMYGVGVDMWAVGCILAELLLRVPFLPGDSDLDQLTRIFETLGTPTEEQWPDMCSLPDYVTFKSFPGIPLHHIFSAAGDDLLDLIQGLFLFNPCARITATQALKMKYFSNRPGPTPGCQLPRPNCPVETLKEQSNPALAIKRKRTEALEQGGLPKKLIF
# Chain of Serine/threonine-protein kinase 10 (O94804 whole entry): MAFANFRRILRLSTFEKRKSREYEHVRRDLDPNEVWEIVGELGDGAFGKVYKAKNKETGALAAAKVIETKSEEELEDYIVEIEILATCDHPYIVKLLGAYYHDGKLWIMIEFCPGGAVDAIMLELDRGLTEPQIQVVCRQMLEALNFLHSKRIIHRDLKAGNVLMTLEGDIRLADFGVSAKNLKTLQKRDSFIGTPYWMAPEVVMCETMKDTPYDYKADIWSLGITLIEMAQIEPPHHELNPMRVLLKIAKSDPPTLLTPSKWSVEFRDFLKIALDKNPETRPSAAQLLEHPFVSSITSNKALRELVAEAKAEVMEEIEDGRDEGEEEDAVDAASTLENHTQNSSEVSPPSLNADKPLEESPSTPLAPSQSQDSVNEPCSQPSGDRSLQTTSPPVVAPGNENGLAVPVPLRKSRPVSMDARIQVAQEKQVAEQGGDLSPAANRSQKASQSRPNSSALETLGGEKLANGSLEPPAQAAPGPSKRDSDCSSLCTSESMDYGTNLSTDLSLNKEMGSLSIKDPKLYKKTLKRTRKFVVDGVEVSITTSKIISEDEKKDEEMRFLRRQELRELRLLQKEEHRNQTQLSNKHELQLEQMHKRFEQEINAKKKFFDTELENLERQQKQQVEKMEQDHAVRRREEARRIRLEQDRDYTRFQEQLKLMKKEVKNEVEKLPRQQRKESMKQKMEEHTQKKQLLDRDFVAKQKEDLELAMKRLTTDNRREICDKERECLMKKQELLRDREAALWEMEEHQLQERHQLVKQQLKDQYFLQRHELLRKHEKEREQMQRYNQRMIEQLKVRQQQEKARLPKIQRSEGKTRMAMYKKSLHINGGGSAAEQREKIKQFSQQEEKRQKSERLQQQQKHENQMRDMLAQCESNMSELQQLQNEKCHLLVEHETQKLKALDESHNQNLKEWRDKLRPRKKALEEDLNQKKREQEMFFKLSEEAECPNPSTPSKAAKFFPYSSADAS
Compound,Kd [1],Kd [2],Kd [3],Kd [4],Kd [5],Kd [6],Kd [7],Kd [8]
Cn1ncc(Cl)c1-c1cc(C(=O)N[C@H](CN)Cc2cccc(F)c2)sc1Cl [AFURESERTIB],> 30 µM (inactive),> 30 µM (inactive),> 30 µM (inactive),> 30 µM (inactive),> 30 µM (inactive),> 30 µM (inactive),> 30 µM (inactive),> 30 µM (inactive)
COC(=O)N[C@@H](C)CNc1nccc(-c2cn(C(C)C)nc2-c2cc(Cl)cc(NS(C)(=O)=O)c2F)n1 [ENCORAFENIB],> 30 µM (inactive),> 30 µM (inactive),> 30 µM (inactive),> 30 µM (inactive),> 30 µM (inactive),> 30 µM (inactive),> 30 µM (inactive),> 30 µM (inactive)
Cc1cc(-c2cc(O)ccc2Cl)cc2nnc(Nc3ccc(OCCN4CCCC4)cc3)nc12,> 30 µM (inactive),> 30 µM (inactive),> 30 µM (inactive),> 30 µM (inactive),> 30 µM (inactive),> 30 µM (inactive),> 30 µM (inactive),> 30 µM (inactive)
OCCn1cc(-c2cnc3nnn(Cc4ccc5ncccc5c4)c3n2)cn1 [PF-04217903],> 30 µM (inactive),> 30 µM (inactive),–,–,> 30 µM (inactive),> 30 µM (inactive),> 30 µM (inactive),> 30 µM (inactive)
CCc1cnn2c(NCc3ccc[n+]([O-])c3)cc(N3CCCC[C@H]3CCO)nc12 [DINACICLIB],> 30 µM (inactive),> 30 µM (inactive),–,–,> 30 µM (inactive),> 30 µM (inactive),> 30 µM (inactive),> 30 µM (inactive)
C=CC(=O)N1CCC(Oc2cc3c(Nc4ccc(Cl)c(Cl)c4F)ncnc3cc2OC)CC1 [POZIOTINIB],> 30 µM (inactive),> 30 µM (inactive),> 30 µM (inactive),> 30 µM (inactive),> 30 µM (inactive),> 30 µM (inactive),–,> 30 µM (inactive)
CC(C)Nc1cc(-c2c[nH]c(C(=O)N[C@H](CO)c3cccc(Cl)c3)c2)c(Cl)cn1 [ULIXERTINIB],> 30 µM (inactive),> 30 µM (inactive),> 30 µM (inactive),> 30 µM (inactive),> 30 µM (inactive),> 30 µM (inactive),–,> 30 µM (inactive)
O=C(Nc1cccc(Cl)c1)Nc1ncc(CCNc2ncnc3ccsc23)s1 [SNS-314],–,–,–,–,> 30 µM (inactive),> 30 µM (inactive),> 30 µM (inactive),> 30 µM (inactive)
C1=C/COCc2cc(ccc2OCCN2CCCC2)Nc2nccc(n2)-c2cccc(c2)COC/1 [PACRITINIB],> 30 µM (inactive),3.66 µM (active),0.293 µM (active),> 30 µM (inactive),–,> 30 µM (inactive),–,> 30 µM (inactive)
Cc1ccc(S(=O)(=O)Nc2nc3ccccc3nc2Nc2ccc3nsnc3c2)cc1,> 30 µM (inactive),> 30 µM (inactive),> 30 µM (inactive),> 30 µM (inactive),> 30 µM (inactive),> 30 µM (inactive),–,> 30 µM (inactive)
CN1CCN(c2ccc3nc(-c4c(N)c5c(F)cccc5[nH]c4=O)[nH]c3c2)CC1 [DOVITINIB],–,–,–,–,–,–,> 30 µM (inactive),–
COc1cc2nccc(Oc3ccc(NC(=O)NC4CC4)c(Cl)c3)c2cc1C(N)=O [LENVATINIB],> 30 µM (inactive),–,> 30 µM (inactive),> 30 µM (inactive),0.793 µM (active),> 30 µM (inactive),> 30 µM (inactive),–
Cn1cc(-c2ccc(F)c(C(F)(F)F)c2)nc1C1CCN(c2ncnc3[nH]ncc23)CC1 [LY-2584702],> 30 µM (inactive),> 30 µM (inactive),> 30 µM (inactive),> 30 µM (inactive),> 30 µM (inactive),> 30 µM (inactive),–,> 30 µM (inactive)
COc1cc(CCc2cc(NC(=O)c3ccc(N4C[C@@H](C)N[C@@H](C)C4)cc3)n[nH]2)cc(OC)c1 [AZD-4547],> 30 µM (inactive),> 30 µM (inactive),> 30 µM (inactive),> 30 µM (inactive),> 30 µM (inactive),> 30 µM (inactive),–,0.049 µM (active)
COc1cc(OC)c(/C=C/S(=O)(=O)Cc2ccc(OC)c(NCC(=O)O)c2)c(OC)c1 [RIGOSERTIB],> 30 µM (inactive),> 30 µM (inactive),> 30 µM (inactive),> 30 µM (inactive),> 30 µM (inactive),> 30 µM (inactive),–,> 30 µM (inactive)
Cc1c(F)cc(C(=O)NC2CC2)cc1-c1ccc(C(=O)NCC(C)(C)C)cn1 [LOSMAPIMOD],> 30 µM (inactive),> 30 µM (inactive),> 30 µM (inactive),> 30 µM (inactive),> 30 µM (inactive),> 30 µM (inactive),–,> 30 µM (inactive)

# The remaining lines, values ahead:
Kd [1],Kd [2],Kd [3],Kd [4],Kd [5],Kd [6],Kd [7],Kd [8],Compound
–,–,–,> 30 µM (inactive),–,1.1 µM (active),> 30 µM (inactive),–,Cc1nc(N)sc1-c1ccnc(Nc2ccc(N3CCOCC3)cc2)n1 [CYC-116]
–,> 30 µM (inactive),–,–,–,> 30 µM (inactive),> 30 µM (inactive),> 30 µM (inactive),Cc1cc(Nc2cc(N3CCN(C)CC3)nc(/C=C/c3ccccc3)n2)n[nH]1 [ENMD-2076]
> 30 µM (inactive),> 30 µM (inactive),> 30 µM (inactive),> 30 µM (inactive),0.317 µM (active),> 30 µM (inactive),–,> 30 µM (inactive),O=C1NC(=O)/C(=C/c2ccc3nccc(-c4ccncc4)c3c2)S1 [GSK-1059615]
–,–,–,–,–,–,> 30 µM (inactive),–,CCn1c(-c2nonc2N)nc2c(C#CC(C)(C)O)ncc(OC[C@H]3CCCNC3)c21 [GSK-690693]
